Assay results reported in patent EP0585371B1, “AROMATIC OLIGOMERIC COMPOUNDS USEFUL AS MIMICS OF BIOACTIVE MACROMOLECULES” (RHONE-POULENC RORER INTERNATIONAL (HOLDINGS) INC., priority 1991, dated 1992).

Key:
[1] = test system: Vascular smooth muscle cells (VSMC); experiment: Smooth Muscle Cell DNA Synthesis Assay (3H-thymidine incorporation in response to PDGF); type: cell-based, swine; settings: inhibition of incorporation of 3H-thymidine in response to PDGF (9 ng/ml)
Procedure: Vascular smooth muscle cells (VSMC) are isolated from swine coronaries obtained from swine hearts (Hatfield Meat Packing, Hatfield, PA) by enzyme dissociation as described by Gunther, et al., in J. Cell. Biol. 92, 289 (1982). Hyaluronidase (0.5 mg/ml) is added to facilitate dispersal. Cells are maintained in Earle's modified minimal essential medium (EMEM) with D-valine substituted for L-valine, supplemented with Hepes (10 mM), fetal bovine serum (FBS) (10%), penicillin (100 U/ml) and streptomycin ( 100 µg/ml).
The VSMC (passage 2) are plated at a density of 3 x 10^4 /cm2 (1x10^4 cells/well of 96 well tray) and after 48 hours of normal growth are arrested by replacement of above media with serum-free media for 48 hours consisting of: EMEM: Hams F12 (1:1), insulin, 5 µg/ml; transferrin, 35 µg/ml; selenite, 5 ng/ml; antibiotics and buffer (as above). The oligomer of the present invention to be tested (.01-10 µM) is added 2 hours prior to addition of porcine platelet derived growth factor (Research and Diagonostics, Minneapolis, MN), or FBS,in fresh serum-free media. Twenty-four hours later the oligomers are again added preceding addition of growth factors by 2 hours. […]
The VSMC are pulsed (5 hours) with ^3H-thymidine (Amersham, Arlington Heights, IL) (1 µCi/well of a 96 well plate; 42 Ci/mmole) added 15-18 hours after the last dose of growth factor. DNA synthesis is determined in NaOH extraction of ethanol/ether fixed cells as reported by Nemecek, et al., PNAS 83, 674 (1986). The cells are washed with phosphate bufferred saline (200 µl/well of 96-well tray. The cells are incubated with trichloroacetic acid (TCA) (10%, 200 ul) for 5 minutes to remove cytoplasmic label. After a rapid wash with cold 10% TCA, cells are fixed with ethanol/ether (2:1, 200 µl/well 5 min) and dried. The labeled DNA is extracted with 0.5 N NaOH (200 µl/well 30 min incubation, room temperature). The extracted DNA is neutralized (0.5 N HCI) and counted by liquid scintillation.
Statistical evaluation is as reported by Bilder, et al., Am. […] IC50 values are calculated by linear regression (RPL of RS1) from % inhibition of a minimum of 3 log fold dilutions of oligomers in the presence of PDGF (9 ng/ml) which give 70-80% of a maximal PDGF response. […] Percent inhibition is calculated by comparing the effect of PDGF alone (vehicle treated cultures + PDGF minus vehicle treated cultures without PDGF) to the effect of oligomers (oligomer + PDGF minus oligomer alone) and divided by the effect of PDGF times 100. i.e., = % inhibition = ((ΔVehicle + PDGF) - (Δoligomer + PDGF)/(Δvehicle + PDGF)) x 100.

vWF Binding to Gp1b = target: T1, vWF Binding to Gp1b (Homo sapiens, UniProt P04275+P07359); experiment: Inhibition of ristocetin-induced binding of 125I-vWF to formalin-fixed platelets; settings: at 100 µg/ml; ristocetin 1.0 mg/ml
T1 construct: multimeric vWF (isolated from human plasma cryoprecipitate); Formalin-fixed platelets, prepared according to the method of MacFarlane; from tissue; host or cells: vWF from human plasma cryoprecipitate; GPIb on formalin-fixed platelets
Procedure: The binding of vWf (vonWillebrand Factor) to glycoprotein Ib is measured in one of two experimental systems, in the presence of either ristocetin or botrocetin as modulators of binding. The ristocetin modulated binding is described herein.
Formalin-fixed platelets, prepared according to the method of MacFarlane, D. et al., Thromb. Diath. Haemorrh. 34, 306-308 (1975), were preincubated at room temperature for 15 minutes with specified dilutions of oligomers according to the present invention. Ristocetin, (Sigma, St. Louis, MO) diluted to a final concentration of 1.0 mg/ml, and ^125I-labelled multimeric vWF (isolated from human plasma cryoprecipitate according to the method of Fulcher, C.A. et al. Proc. Natl. Acad. Sci. USA, 79, 1648-1652 (1982), and labelled according to the method of Fraker, P.J. et al. Biochem. Biophys. Res. Commun., 80, 849-857 (1978)) were then added to the incubation mixture, and the amount of ^125I- vWF bound to the platelets was determined. ^125I-vWF binding to the platelets was referenced against 100% binding which was defined as the amount of ^125I- vWF bound in the absence of added oligomer compound. The method for measuring vWF binding is reported in detail in Ruggeri et al., J. Clin. Invest., 72, 1-12, (1983), herein incorporated by reference.

T1 sequence (P04275 764-2813 limits assumed): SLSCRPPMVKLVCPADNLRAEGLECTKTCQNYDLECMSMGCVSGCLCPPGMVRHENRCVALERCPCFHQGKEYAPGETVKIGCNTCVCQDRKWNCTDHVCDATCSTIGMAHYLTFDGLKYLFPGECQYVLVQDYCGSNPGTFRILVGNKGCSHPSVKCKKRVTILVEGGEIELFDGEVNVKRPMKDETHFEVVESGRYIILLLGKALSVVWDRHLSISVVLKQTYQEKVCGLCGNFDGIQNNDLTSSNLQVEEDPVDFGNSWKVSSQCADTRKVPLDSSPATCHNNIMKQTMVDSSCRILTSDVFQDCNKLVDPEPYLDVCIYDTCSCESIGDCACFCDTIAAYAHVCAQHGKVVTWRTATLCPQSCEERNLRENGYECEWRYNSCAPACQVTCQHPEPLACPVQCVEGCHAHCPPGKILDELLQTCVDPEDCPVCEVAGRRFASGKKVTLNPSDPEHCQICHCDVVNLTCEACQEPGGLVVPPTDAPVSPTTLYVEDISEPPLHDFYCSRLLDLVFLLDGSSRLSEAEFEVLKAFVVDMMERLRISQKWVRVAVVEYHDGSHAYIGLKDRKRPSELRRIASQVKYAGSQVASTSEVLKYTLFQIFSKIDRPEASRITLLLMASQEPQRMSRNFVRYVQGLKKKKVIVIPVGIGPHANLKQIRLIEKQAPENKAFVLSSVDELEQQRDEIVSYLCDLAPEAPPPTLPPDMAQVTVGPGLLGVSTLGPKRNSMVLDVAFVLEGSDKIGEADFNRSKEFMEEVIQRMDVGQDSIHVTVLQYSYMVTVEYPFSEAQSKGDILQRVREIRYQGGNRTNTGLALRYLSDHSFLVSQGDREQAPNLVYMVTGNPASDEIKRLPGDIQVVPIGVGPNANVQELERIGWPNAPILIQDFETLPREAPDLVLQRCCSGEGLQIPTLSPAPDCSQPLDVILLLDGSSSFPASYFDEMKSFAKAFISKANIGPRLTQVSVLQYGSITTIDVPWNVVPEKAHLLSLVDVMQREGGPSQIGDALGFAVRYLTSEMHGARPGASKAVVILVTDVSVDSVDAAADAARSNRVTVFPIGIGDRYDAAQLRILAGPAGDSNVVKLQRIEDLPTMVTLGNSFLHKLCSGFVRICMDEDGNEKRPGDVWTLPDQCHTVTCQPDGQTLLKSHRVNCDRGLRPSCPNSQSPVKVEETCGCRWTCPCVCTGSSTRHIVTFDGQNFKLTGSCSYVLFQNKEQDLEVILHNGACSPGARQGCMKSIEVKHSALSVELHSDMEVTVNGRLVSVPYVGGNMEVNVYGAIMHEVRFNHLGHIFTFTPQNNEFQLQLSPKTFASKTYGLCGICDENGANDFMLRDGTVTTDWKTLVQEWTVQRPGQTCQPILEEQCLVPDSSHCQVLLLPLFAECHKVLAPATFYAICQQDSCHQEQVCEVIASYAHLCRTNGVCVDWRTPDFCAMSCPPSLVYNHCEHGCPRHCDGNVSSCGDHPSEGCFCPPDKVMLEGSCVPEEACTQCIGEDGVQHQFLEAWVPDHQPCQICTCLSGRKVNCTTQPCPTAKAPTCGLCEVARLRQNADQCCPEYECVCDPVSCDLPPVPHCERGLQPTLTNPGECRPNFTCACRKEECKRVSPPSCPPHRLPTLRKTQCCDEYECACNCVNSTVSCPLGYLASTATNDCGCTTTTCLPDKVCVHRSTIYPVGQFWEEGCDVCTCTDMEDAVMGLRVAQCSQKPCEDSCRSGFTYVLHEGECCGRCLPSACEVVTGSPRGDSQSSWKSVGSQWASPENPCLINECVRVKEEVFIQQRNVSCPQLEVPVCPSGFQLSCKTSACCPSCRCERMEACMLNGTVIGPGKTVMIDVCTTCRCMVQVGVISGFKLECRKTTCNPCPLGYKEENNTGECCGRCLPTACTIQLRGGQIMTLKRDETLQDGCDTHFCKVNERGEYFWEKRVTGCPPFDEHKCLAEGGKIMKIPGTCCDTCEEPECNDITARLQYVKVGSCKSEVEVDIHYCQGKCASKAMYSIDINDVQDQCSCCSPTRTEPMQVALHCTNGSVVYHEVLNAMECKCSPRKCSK
T1 sequence (P07359 17-652): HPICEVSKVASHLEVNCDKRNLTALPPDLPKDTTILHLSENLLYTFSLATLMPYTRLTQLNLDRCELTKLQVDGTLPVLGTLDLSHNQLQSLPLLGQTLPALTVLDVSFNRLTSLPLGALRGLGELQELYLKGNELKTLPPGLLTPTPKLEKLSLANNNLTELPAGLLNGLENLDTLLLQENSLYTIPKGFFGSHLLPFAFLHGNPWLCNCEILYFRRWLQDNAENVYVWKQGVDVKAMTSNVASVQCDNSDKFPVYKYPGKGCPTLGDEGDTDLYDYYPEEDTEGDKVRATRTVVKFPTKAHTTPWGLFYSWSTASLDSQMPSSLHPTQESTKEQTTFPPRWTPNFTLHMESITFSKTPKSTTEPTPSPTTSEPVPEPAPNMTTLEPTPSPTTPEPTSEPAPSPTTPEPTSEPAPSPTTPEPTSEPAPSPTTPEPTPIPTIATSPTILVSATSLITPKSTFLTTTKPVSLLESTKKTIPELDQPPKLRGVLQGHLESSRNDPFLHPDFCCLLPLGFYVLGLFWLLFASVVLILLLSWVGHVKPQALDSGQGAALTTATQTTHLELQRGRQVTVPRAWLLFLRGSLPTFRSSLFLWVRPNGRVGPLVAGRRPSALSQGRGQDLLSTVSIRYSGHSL

Compound: Cc1cc(O)c(Cc2cc(O)c(Cc3cc(O)c(Cc4cc(O)c(Cc5cc(O)c(Cc6cc(O)c(Cc7cc(O)c(Cc8cc(O)ccc8CCC(=O)O)cc7CCC(=O)O)cc6CCC(=O)O)cc5CCC(=O)O)cc4CCC(=O)O)cc3CCC(=O)O)cc2CCC(=O)O)cc1CCC(=O)O [Ex 4, 5-[4-[4-[4-[4-[4-[4-[[2-(2-carboxyethyl)-5-hydroxy]benzyl]-[2-(2-carboxyethyl)-5-hydroxy]benzyl]-[2-(2-carboxyethyl)-5-hydroxy]benzyl]-[2-(2-carboxyethyl)-5-hydroxy]benzyl]-[2-(2-carboxyethyl)-5-hydroxy]benzyl]-[2-(2-carboxyethyl)-5-hydroxy]benzyl]-[2-(2-carboxyethyl)-5-hydroxy]benzyl]-4-hydroxy-2-methylhydrocinnamic acid]
- IC50 [1]: 1600 nM
- Ristocetin-Induced Inhibition of vWF Binding to Gp1b (vWF Binding to Gp1b): 50% at 100 µg/ml
